Assay results as given in US9518026B2, “5-aminopyrazole-4-carboxamide inhibitors of CDPK1 from T. gondii and C. parvum” (UNIVERSITY OF WASHINGTON THROUGH ITS CENTER FOR …, priority 2013, dated 2016).
Read-outs that look alike come from different tables or passages of the source.

Assays:
CpCDPK1 = CpCDPK1 (Cryptosporidium parvum (strain Iowa II), UniProt A3FQ16); test: biochemical; conditions: Table 1; KinaseGlo, Syntide 2 peptide substrate; read-out: CpCDPK1 IC50
TgCDPK1 = TgCDPK1 (Toxoplasma gondii, UniProt Q9BJF5); test: biochemical; conditions: read-out: TgCDPK1 IC50
TgCDPK1, sequence (Q9BJF5 1-507): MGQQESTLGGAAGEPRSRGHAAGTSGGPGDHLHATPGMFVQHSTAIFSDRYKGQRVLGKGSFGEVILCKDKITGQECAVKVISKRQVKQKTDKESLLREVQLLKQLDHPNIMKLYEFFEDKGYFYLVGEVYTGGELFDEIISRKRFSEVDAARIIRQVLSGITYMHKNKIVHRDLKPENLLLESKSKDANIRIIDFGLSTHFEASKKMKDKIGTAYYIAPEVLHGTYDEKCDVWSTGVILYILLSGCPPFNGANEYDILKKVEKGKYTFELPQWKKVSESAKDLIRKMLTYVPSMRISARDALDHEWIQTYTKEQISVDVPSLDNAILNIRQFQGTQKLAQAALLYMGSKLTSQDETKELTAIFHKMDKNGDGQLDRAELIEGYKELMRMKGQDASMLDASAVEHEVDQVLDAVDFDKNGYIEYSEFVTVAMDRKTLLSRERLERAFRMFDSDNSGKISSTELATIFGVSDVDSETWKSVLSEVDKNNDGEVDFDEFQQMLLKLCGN

Src = Src (Homo sapiens (Human), UniProt P12931); test: biochemical
Src, sequence (P12931 270-523): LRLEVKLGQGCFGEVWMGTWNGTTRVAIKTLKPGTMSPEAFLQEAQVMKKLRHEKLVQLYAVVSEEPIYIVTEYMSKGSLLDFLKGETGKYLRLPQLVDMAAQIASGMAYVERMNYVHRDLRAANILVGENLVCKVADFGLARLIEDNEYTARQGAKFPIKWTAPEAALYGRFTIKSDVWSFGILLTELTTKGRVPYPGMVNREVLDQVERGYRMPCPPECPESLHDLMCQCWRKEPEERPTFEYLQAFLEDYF

[1] = Cytotoxicity against CRL8155 cell line; format: cell-based; conditions: human, CRL8155 cells (lymphoblast, spleen), read-out: Cytotoxicity (CRL8155) EC50
[2] = Table 1, KinaseGlo, Syntide 2 peptide substrate

CpCDPK1, sequence (A3FQ16 1-538): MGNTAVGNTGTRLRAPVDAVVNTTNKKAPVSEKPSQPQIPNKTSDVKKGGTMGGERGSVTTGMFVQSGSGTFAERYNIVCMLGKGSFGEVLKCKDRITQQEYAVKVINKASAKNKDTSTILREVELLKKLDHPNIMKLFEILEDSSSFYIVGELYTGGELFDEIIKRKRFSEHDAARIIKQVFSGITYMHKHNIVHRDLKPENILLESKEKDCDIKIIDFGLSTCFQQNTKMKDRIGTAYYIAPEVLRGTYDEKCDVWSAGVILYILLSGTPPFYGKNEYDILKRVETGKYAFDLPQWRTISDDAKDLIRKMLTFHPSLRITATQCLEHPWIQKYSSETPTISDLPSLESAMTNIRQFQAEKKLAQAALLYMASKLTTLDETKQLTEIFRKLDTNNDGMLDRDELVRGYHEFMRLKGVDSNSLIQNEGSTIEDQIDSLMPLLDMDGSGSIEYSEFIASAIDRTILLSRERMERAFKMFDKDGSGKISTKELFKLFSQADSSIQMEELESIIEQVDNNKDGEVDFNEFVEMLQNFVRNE

Structure (SMILES) | IC50 (CpCDPK1) [nM] | IC50 (TgCDPK1; [2]) [nM] | EC50 ([1]; Table 3) [µM] | also measured
CC(C)(C)n1nc(-c2ccc3nc(OC4CCC4)ccc3c2)c(C(N)=O)c1N [Compound 1639, 5-amino-1-(tert-butyl)-3-(2-cyclobutoxyquinolin-6-yl)-1H-pyrazole-4-carboxamide] | 6 | 5 | > 40 | IC50 (Src; Src IC50 (μM), Table 3): > 10 µM
CCOc1ccc2cc(-c3nn(C4CCC4)c(N)c3C(N)=O)cnc2c1 [Compound 1652] | – | – | > 40 | IC50 (Src): > 10 µM
CCOc1ccc2cc(-c3nn(C(C)(C)C)c(N)c3C(N)=O)ccc2n1 [Compound 1597, 5-amino-1-(tert-butyl)-3-(2-ethoxyquinolin-6-yl)-1H-pyrazole-4-carboxamide] | 3 | – | > 40 | IC50 (Src; Src IC50 (μM), Table 3): > 10 µM
CCOc1ccc2cc(-c3nn(C4CCCCC4)c(N)c3C(N)=O)ccc2n1 [Compound 1633, 5-amino-1-cyclohexyl-3-(2-ethoxyquinolin-6-yl)-1H-pyrazole-4-carboxamide] | 2 | 4 | > 40 | IC50 (Src; Src IC50 (μM), Table 3): > 10 µM
CCOc1ccc2cc(-c3nn(C4CCCCCC4)c(N)c3C(N)=O)cnc2c1 [Compound 1604, 5-amino-1-cycloheptyl-3-(7-ethoxyquinolin-3-yl)-1H-pyrazole-4-carboxamide] | 2 | – | > 40 | IC50 (Src; Src IC50 (μM), Table 3): > 10 µM
CC(C)(C)n1nc(-c2cnc3cc(F)ccc3c2)c(C(N)=O)c1N [Compound 1545, 5-amino-1-tert-butyl-3-(7-fluoroquinolin-3-yl)-1H-pyrazole-4-carboxamide] | – | – | > 40 | IC50 (Src; Src IC50 (μM), Table 3): > 30 µM
CCOc1ccc2cc(-c3nn(C4(C)CCCCC4)c(N)c3C(N)=O)cnc2c1 [Compound 1640, 5-amino-3-(7-ethoxyquinolin-3-yl)-1-(1-methylcyclohexyl)-1H-pyrazole-4-carboxamide] | 6 | 9 | – | –
CCOc1ccc2cc(-c3nn(CCOC)c(N)c3C(=O)NCCOC)cnc2c1 [Compound 1595, 5-amino-3-(7-ethoxyquinolin-3-yl)-N,1-bis(2-methoxyethyl)-1H-pyrazole-4-carboxamide] | 398 | 723 | – | –
NC(=O)c1c(-c2ccc3ccccc3c2)nn(CC2CCNCC2)c1N [Compound 6, 5-amino-3-(naphthalen-2-yl)-1-(piperidin-4-ylmethyl)-1H-pyrazole-4-carboxamide] | 64 | – | – | IC50 (TgCDPK1): 35 nM
CC(C)(C)n1nc(-c2cnc3ccccc3c2)c(C(N)=O)c1N [Compound 38, 5-amino-1-(tert-butyl)-3-(quinolin-3-yl)-1H-pyrazole-4-carboxamide] | 7 | – | – | IC50 (TgCDPK1): 6 nM; IC50 (Src; Src IC50 (μM), Table 2): > 10 µM; EC50 ([1]; Table 2): > 40 µM
CC(C)(C)Cn1nc(-c2ccc3ccccc3c2)c(C(N)=O)c1N [Compound 19, 5-amino-3-(naphthalen-2-yl)-1-neopentyl-1H-pyrazole-4-carboxamide] | – | – | – | EC50 ([1]; Table 2): > 40 µM
CCn1nc(-c2ccc3ccccc3c2)c(C(N)=O)c1N [Compound 12, 5-amino-1-ethyl-3-(naphthalen-2-yl)-1H-pyrazole-4-carboxamide] | 11 | – | – | IC50 (TgCDPK1): 8 nM
CCOc1ccc2cc(-c3nn(C(C(C)C)C(C)C)c(N)c3C(N)=O)cnc2c1 [Compound 1607, 5-amino-1-(2,4-dimethylpentan-3-yl)-3-(7-ethoxyquinolin-3-yl)-1H-pyrazole-4-carboxamide] | 20 | 99 | – | –
NC(=O)c1c(-c2ccc3ccccc3c2)nn(CC2CCCCC2)c1N [Compound 16, 5-amino-1-(cyclohexylmethyl)-3-(naphthalen-2-yl)-1H-pyrazole-4-carboxamide] | 150 | – | – | IC50 (TgCDPK1): 59 nM
Cn1ncc2cc(-c3nn(C(C)(C)C)c(N)c3C(N)=O)ccc21 [Compound 30, 5-amino-1-(tert-butyl)-3-(1-methyl-1H-indazol-5-yl)-1H-pyrazole-4-carboxamide] | 150 | – | – | IC50 (TgCDPK1): 32 nM
CCOc1ccc2cc(-c3nn(CC4CC4)c(N)c3C(N)=O)cnc2c1 [Compound 1598, 5-amino-1-(cyclopropylmethyl)-3-(7-ethoxyquinolin-3-yl)-1H-pyrazole-4-carboxamide] | 5 | 12 | > 40 | IC50 (Src; Src IC50 (μM), Table 3): > 10 µM
CC(C)Oc1ccc2cc(-c3nn(C(C)(C)C)c(N)c3C(N)=O)cnc2c1 [Compound 1569, 5-amino-1-(tert-butyl)-3-(7-isopropoxyquinolin-3-yl)-1H-pyrazole-4-carboxamide] | 5 | – | > 40 | –
Cc1nc2cc(-c3nn(C(C)(C)C)c(N)c3C(N)=O)ccc2n1C [Compound 32, 5-amino-1-(tert-butyl)-3-(1,2-dimethyl-1H-benzo[d]imidazol-5-yl)-1H-pyrazole-4-carboxamide] | > 3000 | > 3000 | – | –

Structure (SMILES) | IC50 (CpCDPK1) [nM] | IC50 (TgCDPK1; [2]) [nM] | EC50 ([1]; Table 3) [µM] | also measured
NC(=O)c1c(-c2ccc3ccccc3c2)nn(CCN2CCOCC2)c1N [Compound 23, 5-amino-1-(2-morpholinoethyl)-3-(naphthalen-2-yl)-1H-pyrazole-4-carboxamide] | 18 | – | – | IC50 (TgCDPK1): 5 nM
COc1ccc2cc(-c3nn(CC4CCN(C)CC4)c(N)c3C(N)=O)ccc2c1 [Compound 10, 5-amino-3-(6-methoxynaphthalen-2-yl)-1-((1-methylpiperidin-4-yl)methyl)-1H-pyrazole-4-carboxamide] | 14 | 35 | – | –
CCOc1ccc2cc(-c3nn(C4CCCC4)c(N)c3C(N)=O)cnc2c1 [Compound 1605, 5-amino-1-cyclopentyl-3-(7-ethoxyquinolin-3-yl)-1H-pyrazole-4-carboxamide] | 4 | – | > 40 | IC50 (Src; Src IC50 (μM), Table 3): > 10 µM
CCOc1ccc2cc(-c3nn(C4CCOC4)c(N)c3C(N)=O)cnc2c1 (centres unmarked) [Compound 1612, 5-amino-3-(7-ethoxyquinolin-3-yl)-1-(tetrahydrofuran-3-yl)-1H-pyrazole-4-carboxamide] | 3 | 10 | – | –
CC(C)(C)n1nc(-c2ccc3nc(OC4CC4)ccc3c2)c(C(N)=O)c1N [Compound 1643, 5-amino-1-(tert-butyl)-3-(2-cyclopropoxyquinolin-6-yl)-1H-pyrazole-4-carboxamide] | 3 | 5.7 | > 40 | IC50 (Src; Src IC50 (μM), Table 3): > 10 µM
CC(C)(C)n1nc(-c2ccc3ccccc3n2)c(C(N)=O)c1N [Compound 35, 5-amino-1-(tert-butyl)-3-(quinolin-2-yl)-1H-pyrazole-4-carboxamide] | 290 | – | – | IC50 (TgCDPK1): 49 nM
CC(C)(C)n1nc(-c2cnc3cc(OC(F)(F)F)ccc3c2)c(C(N)=O)c1N [Compound 1565, 5-amino-1-tert-butyl-3-(7-(trifluoromethoxy)quinolin-3-yl)-1H-pyrazole-4-carboxamide] | 38 | 31 | – | –
CC(C)(C)n1nc(-c2cnc3cc(OC4CCC4)ccc3c2)c(C(N)=O)c1N [Compound 1630, 5-amino-1-(tert-butyl)-3-(7-cyclobutoxyquinolin-3-yl)-1H-pyrazole-4-carboxamide] | 4 | 3 | – | –
CCOc1ccc2cc(-c3nn(C(C)C(C)O)c(N)c3C(N)=O)cnc2c1 (centres unmarked) [Compound 1611, 5-amino-3-(7-ethoxyquinolin-3-yl)-1-(3-hydroxybutan-2-yl)-1H-pyrazole-4-carboxamide] | 6 | 19 | – | –
CC(C)(C)COc1ccc2cc(-c3nn(C(C)(C)C)c(N)c3C(N)=O)cnc2c1 [Compound 1587, 5-amino-1-(tert-butyl)-3-(7-(neopentyloxy)quinolin-3-yl)-1H-pyrazole-4-carboxamide] | 490 | 175 | – | –
CCOc1ccc2cc(-c3nn(CC4CC4)c(N)c3C(N)=O)ccc2n1 [Compound 1635, 5-amino-1-(cyclopropylmethyl)-3-(2-ethoxyquinolin-6-yl)-1H-pyrazole-4-carboxamide] | 3 | 6 | > 40 | IC50 (Src; Src IC50 (μM), Table 3): > 10 µM
CCOc1ccc2cc(-c3nn(CC(C)(C)CO)c(N)c3C(N)=O)cnc2c1 [Compound 1596, 5-amino-3-(7-ethoxyquinolin-3-yl)-1-(3-hydroxy-2,2-dimethylpropyl)-1H-pyrazole-4-carboxamide] | – | – | > 40 | IC50 (Src; Src IC50 (μM), Table 3): > 10 µM
CCOc1ccc2cc(-c3nn(C(C)C4CC4)c(N)c3C(N)=O)cnc2c1 (centres unmarked) [Compound 1631, 5-amino-1-(1-cyclopropylethyl)-3-(7-ethoxyquinolin-3-yl)-1H-pyrazole-4-carboxamide] | 5 | 10 | – | –
CCOc1ccc2nc(-c3nn(C(C)(C)C)c(N)c3C(N)=O)ccc2c1 [Compound 36, 5-amino-1-(tert-butyl)-3-(6-ethoxyquinolin-2-yl)-1H-pyrazole-4-carboxamide] | 390 | – | – | IC50 (TgCDPK1): 350 nM
CC(C)(C)n1nc(-c2ccc3ncccc3c2)c(C(N)=O)c1N [Compound 37, 5-amino-1-(tert-butyl)-3-(quinolin-6-yl)-1H-pyrazole-4-carboxamide] | 70 | – | – | IC50 (TgCDPK1): 10 nM
CCOc1ccc2cc(-c3nn(CC(C)(C)CO)c(N)c3C(N)=O)ccc2n1 [Compound 1622, 5-amino-3-(2-ethoxyquinolin-6-yl)-1-(3-hydroxy-2,2-dimethylpropyl)-1H-pyrazole-4-carboxamide] | – | – | > 40 | –
CCOc1ccc2cc(-c3nn(CCO)c(N)c3C(N)=O)cnc2c1 [Compound 1577, 5-amino-3-(7-ethoxyquinolin-3-yl)-1-(2-hydroxyethyl)-1H-pyrazole-4-carboxamide] | 89 | 181 | – | –
